Source: patent publication US9241936B2, “Use of rupatadine in the manufacture of pharmaceutical composition for treating chronic obstructive pulmonary disease” (BEIJING WEIFENG YIMIN BIO-TECHNOLOGY LIMITED COMPANY, priority 2012, dated 2016)
Entries after “also recorded” stand apart in the source; their conditions may differ. Where two headings read alike, the source gives them in different places.

Experiments:
[1] = tested on: histamine or PAF; conditions: cited from earlier work; for inhibition of blister: dogs, blister by subcutaneous histamine or PAF, rupatadine 0.3-10 mg/kg, oral administration
[2] = tested on: TLR4 mutant C3H/HeJ mice with emphysema; experiment: pathological evaluation (HE staining) of mice with emphysema induced by TLR4 mutant; format: in vivo; conditions: i.g. once a day for 4 weeks
From the text: Animals for experiment: C3H/HeN wild type mice on SPF level were purchased from Beijing Vitalriver Experimental Animals Limited Company. TLR4 mutant C3H/HeJ mice were purchased from Institute of model animals, Nanjing University.
Method: Fed the SPF mice and the TLR4 mutant mice in experimental animal center of Institute of pharmaceutics research, Chinese academy of medical sciences. Provide free diet under constant temperature and humidity. The mice were killed until they were 3 months old.
Therapy: Grouping and feeding animal models with medicaments.
HE staining method is also named Hematoxylin-Eosin staining Hematoxylin dye liquor is alkaline, and mainly colors intranuclear chromatin and intracytoplasmic ribosome into bluish violet; Eosin is acidic dye, and mainly colors the components in cytoplasm and extracellular matrix.
The lung tissues on the right lower lobe was cut, fixed by 4 wt % paraformaldehyde and then embedded by paraffin. The largest cross-section of the paraffin embedding the lung tissue was stained by HE staining method, and the result was shown in FIG. 4.

[3] = tested on: smoking-induced COPD mice; experiment: amount of inflammatory cells in bronchoalveolar lavage fluid of smoking-induced COPD mice; format: in vivo, C57BL/6 mice
From the text: Main agents and animals for experiments: Cigarettes used in the experiment, type 3R4F, were purchased from Tobacco Research Center, University of Kentucky, USA. C57BL/6 mice on level SPF used in the experiment (male, aged 6-8 weeks, 16-18 g) were purchased from Institute of Animal, Chinese academy of medical sciences.
Preparation of COPD animal model: C57BL/6 mice were put in a smoke box and 5 cigarettes were inhaled without filter tip each time. The ratio of smoke to air was 1:6, and the whole flow rate of gas was 150 ml/min. Smoking experiment was conducted 4 times a day, 30 minutes for each time and last for 24 weeks.
Therapy: grouping and feeding animal models with medicaments. The groups were as table 1:
The mice were dissected at neck and the weasand was exposed for intubation. The lavage amount of PBS was 0.8 ml and the lavage was conducted 3-5 times. The lavage solution was recycled and centrifuged at 1500 r for 10 minutes at 4° C. The supernate was recycled and kept at −20° C. for the test of cytokines.
Cells were reselected and precipitated by 1 ml 1% BSA in PBS. 10 μl resuspension solution was taken for calculating the amount of cells and the hematology analyzer was used for analysis. It can be seen from FIG. 1, compared with the sham-operation group, the total number of hemameba (FIG. 1A), monocyte (FIG. 1B), neutrophile granulocyte (FIG. 1C), lymphocyte (FIG. 1D), basophil (FIG. 1E), and eosinophils (FIG. 1F) in bronchoalveolar lavage fluid of smoking-induced COPD mice increased extremely remarkably.

[4] = tested on: smoking-induced COPD mice; experiment: amount of inflammatory cytokines in bronchoalveolar lavage fluid of smoking-induced COPD mice (ELISA); format: in vivo, C57BL/6 mice
Protocol: Main agents and animals for experiments: Cigarettes used in the experiment, type 3R4F, were purchased from Tobacco Research Center, University of Kentucky, USA. C57BL/6 mice on level SPF used in the experiment (male, aged 6-8 weeks, 16-18 g) were purchased from Institute of Animal, Chinese academy of medical sciences. […] C57BL/6 mice were put in a smoke box and 5 cigarettes were inhaled without filter tip each time. The ratio of smoke to air was 1:6, and the whole flow rate of gas was 150 ml/min. Smoking experiment was conducted 4 times a day, 30 minutes for each time and last for 24 weeks. Therapy: grouping and feeding animal models with medicaments. The groups were as table 1: [table] The mice were dissected at neck and the […] exposed for intubation. […] The lavage solution was recycled and centrifuged at 1500 r for 10 minutes at 4° C. The supernate was recycled and kept at -20° C. for the test. 100 μl supernate was taken to conduct ELISA examination, and commercial available ELISA kit was used to test the amount of inflammatory cytokines. It can be seen from FIG. 2, compared with the sham-operation group, the content of IL-2 (FIG. 2A), IL-4 (FIG. 2C), IL-17 (FIG. 2D) increased remarkably in lungs of COPD mice.

[5] = tested on: smoking-induced COPD mice; experiment: pathological evaluation (HE staining) of lung tissue of smoking-induced COPD mice; format: in vivo, C57BL/6 mice; conditions: 6 mg/kg i.g. once a day for 4 weeks
Protocol: Main agents and animals for experiments: Cigarettes used in the experiment, type 3R4F, were purchased from Tobacco Research Center, University of Kentucky, USA. C57BL/6 mice on level SPF used in the experiment (male, aged 6-8 weeks, 16-18 g) were purchased from Institute of Animal, Chinese academy of medical sciences. […] C57BL/6 mice were put in a smoke box and 5 cigarettes were inhaled without filter tip each time. The ratio of smoke to air was 1:6, and the whole flow rate of gas was 150 ml/min. Smoking experiment was conducted 4 times a day, 30 minutes for each time and last for 24 weeks. Therapy: grouping and feeding animal models with medicaments. The groups were as table 1: [table] HE staining method is also named Hematoxylin-Eosin staining method. Hematoxylin dye liquor is alkaline, and mainly colors intranuclear chromatin and intracytoplasmic ribosome into bluish violet. Eosin is acidic dye, and mainly colors the components in cytoplasm and extracellular matrix. The lung tissues on the right lower lobe was cut, fixed by 4 wt % paraformaldehyde and then embedded by paraffin. The largest cross-section of the paraffin embedding lung tissue was stained by HE staining method, and the result was shown in FIG. 3.

[6] = tested on: PAF; conditions: read-out: IC50 of platelet aggregation induced by PAF, cited from earlier work
[7] = tested on: PAF; conditions: whole blood of dogs; read-out: IC50 of platelet aggregation induced by PAF; cited from earlier work
[8] = tested on: histamine or PAF; conditions: cited from earlier work
[9] = tested on: mastocytes; conditions: cited from earlier work
[10] = tested on: eosinophil; conditions: cited from earlier work
[11] = cited from earlier work
[12] = tested on: patients suffering seasonal or perennial allergic rhinitis; conditions: cited from earlier work
[13] = tested on: mouse; conditions: 1000 mg/Kg; cited from earlier work
[14] = tested on: macaque; conditions: 10 mg/Kg; cited from earlier work
[15] = tested on: rats, Guinea pigs and dogs; conditions: cited from earlier work
[16] = tested on: histamine H1 receptors; conditions: cited from earlier work
[17] = tested on: pulmonary fibrosis induced by Bleomycin of mammals; conditions: cited from earlier work
[18] = target: histamine H1 receptors (Cavia porcellus, UniProt P31389); conditions: cited from earlier work
[19] = bronchoalveolar lavage fluid, 6 mg/kg i.g. once a day for 4 weeks after modeling
[20] = 6 mg/Kg rupatadine treated group
[21] = bronchoalveolar lavage fluid, ELISA, 6 mg/kg i.g. once a day for 4 weeks after modeling

histamine H1 receptors (Cavia porcellus, UniProt P31389), sequence (P31389 whole entry): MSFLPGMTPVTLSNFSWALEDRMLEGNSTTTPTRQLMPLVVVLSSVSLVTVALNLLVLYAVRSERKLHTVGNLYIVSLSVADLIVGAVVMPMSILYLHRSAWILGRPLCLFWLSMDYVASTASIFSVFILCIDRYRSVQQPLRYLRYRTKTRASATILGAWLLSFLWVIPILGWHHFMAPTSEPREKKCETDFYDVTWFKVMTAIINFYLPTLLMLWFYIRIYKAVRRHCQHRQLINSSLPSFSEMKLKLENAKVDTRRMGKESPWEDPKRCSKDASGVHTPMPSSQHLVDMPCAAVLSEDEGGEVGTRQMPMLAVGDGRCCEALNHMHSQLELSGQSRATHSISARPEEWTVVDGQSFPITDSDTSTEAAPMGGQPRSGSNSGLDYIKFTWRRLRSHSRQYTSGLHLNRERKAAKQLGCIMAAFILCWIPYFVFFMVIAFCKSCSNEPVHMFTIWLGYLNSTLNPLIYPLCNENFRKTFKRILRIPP

Compound: CCOC(=O)N1CCC(=C2c3ccc(Cl)cc3CCc3cccnc32)CC1 [loratadine]
- inhibition of blister [1]: can only inhibit the blister induced by histamine

Compound: O=C(O)COCCN1CCN(C(c2ccccc2)c2ccc(Cl)cc2)CC1 (stereo not shown) [cetirizine]
- inhibition of blister [1]: can only inhibit the blister induced by histamine

Compound: IL-17A: IL-17A used in positive control group, purchased from R&D Company
- lung tissue pathology, emphysema / structure of alveoli (HE staining) [2]: could effectively inhibit the further development of emphysema in mice

Compound: Cc1cncc(CN2CCC(=C3c4ccc(Cl)cc4CCc4cccnc43)CC2)c1 [rupatadine, Rupatadine]
- amount of various inflammatory cells in bronchoalveolar lavage fluid compared to the model group ([3]; 6 mg/kg rupatadine treated group): could remarkably reduce the amount of various inflammatory cells
- Basophil [3, 19]: 24.816 * 10^4 number/mL
- Eosinophils [3, 19]: 34.692 * 10^4 number/mL
- Lymphocyte [3, 19]: 32.694 * 10^5 number/mL
- Monocyte [3, 19]: 49.504 * 10^5 number/mL
- Neutrophile granulocyte [3, 19]: 33.864 * 10^5 number/mL
- total hemameba [3, 19]: 13.69 * 10^6 number/mL
- content of IFN-γ [4, 20]: did not affect the content of IFN-γ
- content of various inflammatory cytokines in lungs of COPD mice [4, 20]: could reduce the content of various inflammatory cytokines
- IFN-γ [4, 21]: 26.28 pg/mL
- IL-2 [4, 21]: 6.71 pg/mL
- IL-4 [4, 21]: 6.54 pg/mL
- IL-17 [4, 21]: 35.53 pg/mL
- lung tissue pathology, structure of alveoli (HE staining) [5]: could effectively recover normal structure of alveoli
- lung tissue pathology, emphysema / structure of alveoli (HE staining) [2]: could effectively recover normal structure of alveoli
- IC50 ([6]; platelet rich plasma (of rabbits)): 2900 nM
- IC50 [6]: 200 nM
- IC50 [7]: 290 nM
- duration of effect ([1]; after intake of rupatadine): 24 h
- time of best potency after intake ([1]; after intake of rupatadine): 4 h
- inhibition of blister [1]: can effectively inhibit blister
- inhibition of conjunctivitis ([8]; Guinea pig, induced by histamine or PAF): can inhibit conjunctivitis induced by histamine or PAF
- therapy effect of eye drops, times better than loratadine ([8]; applied to eye drops, versus loratadine): 10 times
- inhibition of degranulation of mastocytes [9]: can inhibit
- inhibition of chemotaxis of eosinophil [10]: can inhibit
- time for blood concentration to reach the peak ([11]; after intaking tablet): 1 h
- time for blood concentration to reach the peak ([11]; after intaking the capsule): 1.5 h
- half-life period ([11]; as stated in b6): 5.9 h
- half-life period ([11]; oral administration): 12 h
- alleviation of symptoms relative to placebo ([12]; 2.5 mg, 5 mg, 10 mg, 20 mg per day, two weeks): can alleviate the symptoms more effectively than placebo
- effects compared with loratadine ([12]; 10 mg or 20 mg per day rupatadine vs 10 mg per day loratadine, two weeks, seasonal allergic rhinitis): better effects than intaking 10 mg per day loratadine
- side effects on central nervous system ([12]; 10 mg per day, compared with cetirizine): little side effects on central nervous system
- therapeutic effects compared with ebastine ([12]; 10 mg rupatadine vs 10 mg ebastine daily for 2 weeks, seasonal allergic rhinitis): better therapeutic effects than ebastine
- alleviation of symptoms of seasonal allergic rhinitis compared with loratadine and ebastine ([12]; same dosage): can alleviate the symptoms of seasonal allergic rhinitis more than loratadine and ebastine
- alleviation of nasal and optical symptoms relative to placebo ([12]; seasonal allergic rhinitis patients, 10 mg and 20 mg per day, two weeks): much more alleviated
- period of QTC and QRS [13]: would not be extended
- period of QTC and QRS [14]: would not be extended
- arrhythmia [15]: nor would it lead to arrhythmia
- affinity to histamine H1 receptors [16]: good affinity
- selectivity to peripheral nervous receptors H1 [16]: highly selective
- effect on pulmonary fibrosis induced by Bleomycin ([17]; in vivo): can convert the pulmonary fibrosis induced by Bleomycin
- lethal rate caused by pulmonary fibrosis induced by Bleomycin ([17]; mammals): declining the lethal rate
- anti-histamine activity compared with other medicaments ([18]; in vitro): stronger anti-histamine activity than terfenadine, loratadine, cetirizine, hydroxyzine, diphenhydramine; also recorded: the same as desloratadine
- IC50 ([18]; read-out: anti-histamine activity IC50, ileum of Guinea pig in vitro): 3.5 nM
- anti-histamine activity, times stronger than loratadine ([18]; versus loratadine): 80 times
- anti-histamine activity, times stronger than other anti-histamine medicaments ([18]; versus other anti-histamine medicaments): 100 times
